Measured values reported in the NIST ThermoML archive (doi:10.1021/je300507h).
± gives the expanded uncertainty stated by the source.

Conditions: 101.33 kPa, Liquid; for viscosity: Capillary tube (Ostwald / Ubbelohde) method; for electrical conductivity: Wayne-Kerr 6430B Autobalance Bridge electrode

| SMILES | viscosity (303.15 K) [mPa·s] | electrical conductivity (303.15 K) [S/m] | electrical conductivity (308.15 K) [S/m] | viscosity (313.15 K) [mPa·s] | electrical conductivity (313.15 K) [S/m] | electrical conductivity (318.15 K) [S/m] | viscosity (323.15 K) [mPa·s] | electrical conductivity (323.15 K) [S/m] | electrical conductivity (328.15 K) [S/m] | viscosity (333.15 K) [mPa·s] | electrical conductivity (333.15 K) [S/m] | electrical conductivity (338.15 K) [S/m] | viscosity (343.15 K) [mPa·s] | electrical conductivity (343.15 K) [S/m] | electrical conductivity (323.05 K) [S/m] |
| --- | --- | --- | --- | --- | --- | --- | --- | --- | --- | --- | --- | --- | --- | --- | --- |
| CC(=O)[O-].CCCCn1cc[n+](C)c1 [1-butyl-3-methylimidazolium acetate] | 288.8 ± 12 | 0.0731 ± 0.00074 | 0.1014 ± 0.001 | 149.9 ± 4.2 | 0.136 ± 0.0014 | 0.178 ± 0.0018 | 86.13 ± 1.5 | 0.229 ± 0.0023 | 0.2902 ± 0.0029 | 53.43 ± 0.58 | 0.36 ± 0.0036 | 0.44 ± 0.0044 | 35.33 ± 0.44 | 0.5319 ± 0.0053 | – |
| CCCC(=O)[O-].CCCC[n+]1ccn(C)c1 [3-butyl-1-methyl-1H-imidazolium butanoate] | 364.3 ± 16 | 0.04102 ± 0.00041 | 0.0558 ± 0.00056 | 193.1 ± 6.3 | 0.0752 ± 0.00076 | 0.0992 ± 0.001 | 111.6 ± 2.4 | – | 0.165 ± 0.0017 | 69.24 ± 0.9 | 0.208 ± 0.0021 | 0.258 ± 0.0026 | 45.43 ± 0.58 | 0.315 ± 0.0032 | 0.129 ± 0.0013 |
| CCCC[n+]1ccn(C)c1.O=C[O-] [3-butyl-1-methyl-1H-imidazolium formate] | 138.5 ± 3.4 | 0.1909 ± 0.0019 | 0.249 ± 0.0025 | 80.53 ± 1.3 | 0.319 ± 0.0032 | 0.4019 ± 0.004 | 50.78 ± 0.53 | 0.498 ± 0.005 | 0.6125 ± 0.0061 | 34 ± 0.37 | 0.738 ± 0.0074 | 0.88 ± 0.0088 | 23.94 ± 0.27 | 1.04 ± 0.01 | – |
| CCC(=O)[O-].CCCC[n+]1ccn(C)c1 [3-butyl-1-methyl-1H-imidazolium propanoate] | 325.7 ± 14 | 0.0703 ± 0.00071 | 0.0902 ± 0.00091 | 171.5 ± 5.2 | 0.1201 ± 0.0012 | 0.156 ± 0.0016 | 99.27 ± 1.9 | – | 0.248 ± 0.0025 | 61.78 ± 0.72 | 0.306 ± 0.0031 | 0.3716 ± 0.0037 | 40.75 ± 0.51 | 0.447 ± 0.0045 | 0.198 ± 0.002 |
